In ChEMBL document CHEMBL5523669, “Sialyl LewisX glycomimetics bearing an extended anionic chain targeting E- and P- selectin binding sites” (Bioorg Med Chem, 2024):
Activity calls are given as the source filed them. The calls are words filed in the database; no cut-off is given here.

Columns and labels:
[1] = target: T1, E-selectin (Homo sapiens) (UniProt P16581); experiment: Reduction in human HL-60 cell adhesion in E-Selectin Fc coated plates at 0.1 to 500 uM measured after 1 hr incubation by Cell-selectin adhesion assay; format: cell-based; details: filed as antagonist, dose 0.1-500 µM
T1 sequence (whole entry): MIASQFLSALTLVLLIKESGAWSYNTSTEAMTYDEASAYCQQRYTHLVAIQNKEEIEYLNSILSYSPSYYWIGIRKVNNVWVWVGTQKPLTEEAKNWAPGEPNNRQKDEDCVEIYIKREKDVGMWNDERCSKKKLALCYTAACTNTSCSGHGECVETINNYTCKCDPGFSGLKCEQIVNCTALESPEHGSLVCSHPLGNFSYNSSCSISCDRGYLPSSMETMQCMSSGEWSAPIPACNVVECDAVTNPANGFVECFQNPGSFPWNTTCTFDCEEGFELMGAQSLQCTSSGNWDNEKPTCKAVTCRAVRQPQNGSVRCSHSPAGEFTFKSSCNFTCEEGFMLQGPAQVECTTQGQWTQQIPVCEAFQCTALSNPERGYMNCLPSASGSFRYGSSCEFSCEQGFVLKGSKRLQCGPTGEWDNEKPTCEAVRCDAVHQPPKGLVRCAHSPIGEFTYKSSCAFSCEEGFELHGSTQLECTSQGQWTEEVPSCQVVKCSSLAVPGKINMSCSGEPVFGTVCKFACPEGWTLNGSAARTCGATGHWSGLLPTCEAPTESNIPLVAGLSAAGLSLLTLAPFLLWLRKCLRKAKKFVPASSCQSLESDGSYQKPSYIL

[2] = system: HL-60; experiment: Reduction in human HL-60 cell adhesion in E-Selectin Fc coated plates measured after 1 hr incubation by Cell-selectin adhesion assay; format: cell-based; details: filed as antagonist, dose 0.1-500 µM
[3] = target: T2, P-selectin (Homo sapiens, UniProt P16109); experiment: Antagonist activity at recombinant human P-selectin assessed as inhibition of P-selection binding to homodimer human PSGL-1-Fc interaction measured after 30 mins by surface plasmon resonance (SPR) spectroscopy
T2 sequence (P16109 whole entry): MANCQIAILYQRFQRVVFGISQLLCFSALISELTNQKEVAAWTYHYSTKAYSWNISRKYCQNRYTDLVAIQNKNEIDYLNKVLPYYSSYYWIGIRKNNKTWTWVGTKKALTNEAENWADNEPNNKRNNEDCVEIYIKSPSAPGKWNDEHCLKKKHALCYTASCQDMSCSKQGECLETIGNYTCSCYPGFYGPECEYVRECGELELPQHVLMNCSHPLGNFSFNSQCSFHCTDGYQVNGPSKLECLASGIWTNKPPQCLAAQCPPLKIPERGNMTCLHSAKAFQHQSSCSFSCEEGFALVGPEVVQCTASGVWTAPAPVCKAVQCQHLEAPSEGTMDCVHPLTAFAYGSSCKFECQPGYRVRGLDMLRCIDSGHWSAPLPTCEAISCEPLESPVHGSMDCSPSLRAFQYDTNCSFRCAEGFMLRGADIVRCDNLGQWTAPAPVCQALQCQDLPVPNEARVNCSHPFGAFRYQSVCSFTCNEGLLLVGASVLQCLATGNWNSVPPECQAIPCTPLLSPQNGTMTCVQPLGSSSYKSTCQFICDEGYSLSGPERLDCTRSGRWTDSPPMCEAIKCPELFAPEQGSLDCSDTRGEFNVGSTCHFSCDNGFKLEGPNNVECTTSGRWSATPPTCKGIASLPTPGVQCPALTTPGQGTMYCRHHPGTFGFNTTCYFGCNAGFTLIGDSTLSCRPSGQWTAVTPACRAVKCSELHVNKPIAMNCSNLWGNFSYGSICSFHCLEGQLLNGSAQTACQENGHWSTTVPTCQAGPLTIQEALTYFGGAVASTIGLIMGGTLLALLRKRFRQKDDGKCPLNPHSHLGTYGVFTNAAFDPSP

| SMILES | Activity [1] | Activity [2] | IC50 [3] |
| --- | --- | --- | --- |
| CC(=O)N[C@H]1[C@H]([C@H](O)[C@H](O)CO)O[C@@](O[C@H]2[C@@H](O)[C@@H](CO)O[C@@H](O[C@@H]([C@H](O[C@@H]3O[C@@H](C)[C@@H](O)[C@@H](O)[C@@H]3O)[C@H](C=O)NC(C)=O)[C@H](O)CO)[C@@H]2O)(C(=O)O)C[C@@H]1O | Active | Dose-Dependent Effect |  |
| CC(C)OC(=O)[C@H](O[C@@H]1O[C@H](CO)[C@H](OC(=O)c2ccccc2)[C@H](O[C@H](Cc2ccccc2)C(=O)O)[C@H]1OC(=O)c1ccccc1)[C@@H](O[C@@H]1O[C@@H](C)[C@@H](O)[C@@H](O)[C@@H]1O)C(=O)O[C@@H](C)CCCn1cc(CCCCC(=O)Nc2ccc(OP(=O)(O)O)cc2)nn1 | Active |  | 290 µM |
| CC(C)OC(=O)[C@H](O[C@@H]1O[C@@H](C)[C@@H](O)[C@@H](O)[C@@H]1O)[C@@H](O[C@@H]1O[C@H](CO)[C@H](O)[C@H](O[C@H](Cc2ccccc2)C(=O)O)[C@H]1OC(=O)c1ccccc1)C(=O)OC(C)C |  |  | 162 µM |
